In US6887873B2, “Triazine derivatives and their application as antitelomerase agents” (Aventis Pharma S.A., priority 2001, dated 2005):

Experiments:
[1] = system: human telomerease (HL60 cell extract); assay: Antitelomerease activity: extension of oligonucleotide TS followed by PCR amplification, with HL60 extract; assay type: biochemical; conditions: read-out: TRAP IC50
Protocol: The antitelomerease biological activity is determined by the following experimental protocol:
The leukaemia line HL60 is obtained from ATCC (American Type Culture Collection, Rockville, USA). The cells are cultured in suspension in RPMI 1640 medium containing L-glutamine at 2 mM, penicillin 200 U/ml, streptomycin 200 μg/ml, gentamycin 50 μg/ml and supplemented with 10% heat-inactivated foetal calf serum.
An aliquot of 10^5 cells is centrifuged at 3000×G and the supernatant discarded. The cell pellet is resuspended by several successive pipettings in 200 μl of lysis buffer containing 0.5% CHAPS, 10 mM Tris-HCl, pH 7.5, 1 mM MgCl2, 1 mM EGTA, 5 mM β-mercaptoethanol, 0.1 mM PMSF and 10% glycerol and is stored in ice for 30 minutes. The lysate is centrifuged at 160,000×G for 20 minutes at 4° C. and 160 μl of supernatant are recovered. The proteins in the extract are assayed by the Bradford method. The extract is stored at −80° C.
The inhibition of the telomerease activity is determined by a protocol for extension of the oligonucleotide TS (^5′AATCGTTCGAGCAGAGTT^3′), in the presence of a cellular extract enriched in telomerease activity and compounds which are added at various concentrations (10, 1, 0.1 and 0.01 μM). The extension reaction is followed by a PCR amplification of the extension products with the aid of the oligonucleotides TS and CXext (^5′[…]^3′).
The reaction medium is prepared based on the following composition:
The oligonucleotides are obtained from Eurogentec (Belgium) and are stored at −20° C. at a stock concentration of 1 mg/ml in distilled water.
The reaction samples are assembled in 0.2 ml PCR tubes and one drop of paraffin oil is deposited on each of the reactions of the experiment before closing the tubes.
The reaction samples are then incubated in a Cetus 4800-type PCR apparatus under the following temperature conditions: • 15 minutes at 30° C., • 1 minute at 90° C., • followed by 30 cycles of, • 30 seconds at 94° C., • 30 seconds at 50° C., • and 1 minute 30 seconds at 72° C., • followed by a final cycle of 2 minutes at 72° C.
For each of the samples, an aliquot of 10 μl is pipetted under the oil layer and mixed with 5 μl of a loading buffer containing:
The samples are then analysed by electrophoresis on 12% acrylamide gel in a 1×TBE buffer for 1 hour at a voltage of 200 volts, with the aid of a Novex electrophoresis system.
The acrylamide gels are then dried on a sheet of Whatmann 3 mm paper at 80° C. for 1 hour.
The analysis and the quantification of the reaction products are carried out with the aid of an InstantImager apparatus (Pacard).
For each compound concentration tested, the results are expressed as percentage inhibition of the reaction and calculated from the untreated enzymatic control and from the enzyme-free sample (blank) according to the following formula: (compound value−blank value/enzymatic control value−blank value)×100.
The concentration of compound inducing a 50% inhibition of the telomerease reaction (IC50) is determined with the aid of a semilogarithmic graphical representation of the inhibition values obtained as a function of each of the compound concentrations tested.
A compound is considered to be active as an antitelomerease agent when the quantity inhibiting 50% of the telomerease reaction is in particular less than 5 μM.

[2] = system: G-quadruplex of oligonucleotide GGGTTAGGGTTAGGGTTAGGG (3.5 repeats of the human telomereic motif); assay: G-quadruplex stabilizing activity, fluorescence Tm (FAM+DABCYL oligonucleotide); assay type: binding
Description: The G-quadruplex stabilizing activity may be determined by a method using the formation of a complex with fluorescein of which the experimental protocol is described below.
All the nucleotides, modified or otherwise, were synthesized by Eurogentec SA, Seraing, Belgium. The oligonucleotide FAM+DABCYL carries the catalogue reference OL-0371-0802. It has the sequence: […] corresponding to 3.5 repeats of the human telomereic motif (strand rich in G). The fluorescein is attached to the 5′ end, the DABCYL to the 3′ end, by the chemical arms described by Eurogentec. The concentration of the samples is checked by spectrophotometry, recording the absorbance spectrum between 220 and 700 nm and using the molar extinction coefficient provided by the supplier.
All the experiments were carried out in a 10 mM sodium cacodylate buffer pH 7.6 containing 0.1 M lithium chloride (or sodium chloride). The absence of fluorescent contamination in the buffer was checked beforehand. The fluorescent oligonucleotide is added at the final concentration of 0.2 μM.
All the measurements of fluorescence were carried out on a Spex Fluorolog DM1B apparatus, using an excitation line width of 1.8 nm and an emission line width of 4.5 nm. The samples are placed in a microquartz cuvette of 0.2×1 cm. The temperature of the sample is controlled by an external water bath. The oligonucleotide alone was analysed at 20, 30, 40, 50, 60, 70 and 80° C. The emission spectra are recorded using an excitation wavelength of 470 nm. The excitation spectra are recorded using either 515 nm or 588 nm as emission wavelength. The spectra are corrected for the response of the instrument by reference curves. A high extinction (80-90%) of the fluorescence of fluorescein at room temperature is observed, in agreement with an intramolecular folding of the oligonucleotide at 20° C. in the form of a G-quadruplex, which induces juxtaposition of its 5′ and 3′ ends which are respectively linked to fluorescein and to DABCYL. This juxtaposition causes an already-described phenomenon of extinction of fluorescence which is used for “molecular beacons”.
An oligonucleotide stock solution at the strand concentration of 0.2 μM in 0.1 M LiCl, 10 mM cacodylate buffer, pH 7.6, is prepared beforehand, heated briefly at 90° C. and slowly cooled to 20° C., and then distributed in aliquots of 600 μl in the fluorescence cuvettes. 3 μl of water (for the control) or 3 μl of test product (stock at 200 μM, final concentration 1 μM) are then added and mixed. The samples are then allowed to incubate for at least 1 hour at 20° C. before each measurement. The use of longer incubation times (up to 24 hours) has no influence on the result obtained.
Each experiment allows the measurement of only one sample. The latter is first incubated at an initial temperature of 20° C., heated to 80° C. over 38 minutes, left for 5 minutes at 80° C. and then cooled to 20° C. over 62 minutes. During this time, the fluorescence is measured simultaneously at two emission wavelengths (515 nm and 588 nm) using 470 nm as excitation wavelength. A measurement is carried out every 30 seconds. The temperature of the water bath is recorded in parallel, and the fluorescence profile as a function of the temperature is reconstituted from these values. The fluorescence profiles are then normalized between 20° C. and 80° C., and the temperature for which the intensity of emission at 515 nm is the mean of those at high and low temperature is called Tm. Under these conditions, the Tm of the reference sample without addition of product is 44° C. in a lithium chloride buffer. This temperature is increased to more than 55° C. in a sodium chloride buffer. The addition of a G-quadruplex-stabilizing compound induces an increase in the Tm. This increase is judged to be significant if it is greater than 3°.

Cc1cc(N(C)C)c2cc(Nc3nc(Nc4ccc5nc(C)cc(N(C)C)c5c4)nc(N4CCOCC4)n3)ccc2n1 [Example 24]
IC50 [1]: 1.6 µM
G4 delta Tm [2]: 9.7 °C

COCCNc1nc(Nc2ccc3nc(C)cc(N(C)C)c3c2)nc(Nc2ccc3nc(C)cc(N(C)C)c3c2)n1 [Example 25]
IC50 [1]: 2.2 µM
G4 delta Tm [2]: 4.2 °C

Cc1cc(N(C)C)c2cc(Nc3nc(NCCc4ccccc4)nc(Nc4ccc5nc(C)cc(N(C)C)c5c4)n3)ccc2n1 [Example 26]
IC50 [1]: 1.1 µM
G4 delta Tm [2]: 4.8 °C

Cc1cc(N)c2cc(Nc3nc(Nc4ccc5nc(C)cc(N)c5c4)nc(OCCCN(C)C)n3)ccc2n1 [Example 31, 2,4-bis(4-amino-2-methylquinolin-6-yl)amino-6-(3-dimethylaminopropyl)oxy-[1,3,5]triazine]
IC50 [1]: 0.3 µM
G4 delta Tm [2]: 15.3 °C

Cc1cc(N)c2cc(Nc3nc(Nc4ccc5nc(C)cc(N)c5c4)nc(Oc4ccncc4)n3)ccc2n1 [Example 32, 2,4-bis(4-amino-2-methylquinolin-6-yl)amino-6-(pyridin-4-yl)oxy-[1,3,5]triazine]
IC50 [1]: 0.3 µM
G4 delta Tm [2]: 10.0 °C

Cc1cc(N)c2cc(Nc3nc(Nc4ccc5nc(C)cc(N)c5c4)nc(OCc4ccccc4)n3)ccc2n1 [Example 33, 2,4-bis(4-amino-2-methylquinolin-6-yl)amino-6-(phenylmethyl)oxy-[1,3,5]triazine]
IC50 [1]: 0.4 µM
G4 delta Tm [2]: 10.0 °C

CC(=O)NCCNc1nc(Nc2ccc3nc(C)cc(N)c3c2)nc(Nc2ccc3nc(C)cc(N)c3c2)n1 [Example 35]
IC50 [1]: 0.5 µM
G4 delta Tm [2]: 11.0 °C

CCN(CC)CCNc1nc(Nc2ccc3nc(C)cc(N)c3c2)nc(Nc2ccc3nc(C)cc(N)c3c2)n1 [Example 36]
IC50 [1]: 0.24 µM
G4 delta Tm [2]: 17.5 °C

Cc1cc(N)c2cc(Nc3nc(NCCN(CCN(C)C)Cc4ccccc4)nc(Nc4ccc5nc(C)cc(N)c5c4)n3)ccc2n1 [Example 37]
IC50 [1]: 0.23 µM
G4 delta Tm [2]: 17.5 °C

COC(=O)NCCNc1nc(Nc2ccc3nc(C)cc(N)c3c2)nc(Nc2ccc3nc(C)cc(N)c3c2)n1 [Example 38]
IC50 [1]: 1 µM
G4 delta Tm [2]: 9.5 °C

Cc1cc(N)c2cc(Nc3nc(NCCN(C(C)C)C(C)C)nc(Nc4ccc5nc(C)cc(N)c5c4)n3)ccc2n1 [Example 39]
IC50 [1]: 0.23 µM
G4 delta Tm [2]: 19.5 °C

CCN(CC)CCN(CCN(CC)CC)c1nc(Nc2ccc3nc(C)cc(N)c3c2)nc(Nc2ccc3nc(C)cc(N)c3c2)n1 [Example 40]
IC50 [1]: 0.23 µM
G4 delta Tm [2]: 19 °C

Cc1cc(N)c2cc(Nc3nc(Nc4ccc5nc(C)cc(N)c5c4)nc(N4CCCN(C)CC4)n3)ccc2n1 [Example 42]
IC50 [1]: 0.05 µM
G4 delta Tm [2]: 15.5 °C

CCN(CC)CCN1CCN(c2nc(Nc3ccc4nc(C)cc(N)c4c3)nc(Nc3ccc4nc(C)cc(N)c4c3)n2)CC1 [Example 44]
IC50 [1]: 0.1 µM
G4 delta Tm [2]: 17 °C

Cc1cc(N)c2cc(Nc3nc(NCCN4CCCC4)nc(Nc4ccc5nc(C)cc(N)c5c4)n3)ccc2n1 [Example 46]
IC50 [1]: 1 µM
G4 delta Tm [2]: 18.5 °C

Cc1cc(N)c2cc(Nc3nc(Nc4ccc5nc(C)cc(N)c5c4)nc(N(C)CC4CCN(C)CC4)n3)ccc2n1 [Example 48]
IC50 [1]: 0.1 µM
G4 delta Tm [2]: 14 °C

Cc1cc(N)c2cc(Nc3nc(NCc4ccccn4)nc(Nc4ccc5nc(C)cc(N)c5c4)n3)ccc2n1 [Example 49]
IC50 [1]: 1 µM
G4 delta Tm [2]: 10 °C

Cc1cc(N)c2cc(Nc3nc(NCc4ccccc4)nc(Nc4ccc5nc(C)cc(N)c5c4)n3)ccc2n1 [Example 50]
IC50 [1]: 0.22 µM
G4 delta Tm [2]: 7 °C

COc1cccc(CNc2nc(Nc3ccc4nc(C)cc(N)c4c3)nc(Nc3ccc4nc(C)cc(N)c4c3)n2)c1 [Example 52]
IC50 [1]: 1.3 µM
G4 delta Tm [2]: 6.5 °C

CCN(CCN(C)C)c1nc(Nc2ccc3nc(C)cc(N)c3c2)nc(Nc2ccc3nc(C)cc(N)c3c2)n1 [Example 53]
IC50 [1]: 0.2 µM
G4 delta Tm [2]: 15.5 °C

Cc1cc(N)c2cc(Nc3nc(NCC[N+](C)(C)C)nc(Nc4ccc5nc(C)cc(N)c5c4)n3)ccc2n1 [Example 54]
IC50 [1]: 0.17 µM
G4 delta Tm [2]: 16 °C

Cc1cc(N)c2cc(Nc3nc(Nc4ccc5nc(C)cc(N)c5c4)nc(Nc4cccc5cn[nH]c45)n3)ccc2n1 [Example 56]
IC50 [1]: 0.35 µM
G4 delta Tm [2]: 2.5 °C

Cc1cc(N)c2cc(Nc3nc(Nc4ccc5nc(C)cc(N)c5c4)nc(N4CCN(CCc5ccccc5)CC4)n3)ccc2n1 [Example 57]
IC50 [1]: 0.3 µM
G4 delta Tm [2]: 8 °C

Cc1cc(N)c2cc(Nc3nc(Nc4ccc5nc(C)cc(N)c5c4)nc(N4CCN(c5ncccn5)CC4)n3)ccc2n1 [Example 58]
IC50 [1]: 0.22 µM
G4 delta Tm [2]: 6 °C

Cc1cc(N)c2cc(Nc3nc(Nc4ccc5nc(C)cc(N)c5c4)nc(N4CCN(c5ccncc5)CC4)n3)ccc2n1 [Example 59]
IC50 [1]: 0.19 µM
G4 delta Tm [2]: 11 °C

Cc1cc(N)c2cc(Nc3nc(Nc4ccc5nc(C)cc(N)c5c4)nc(N4CCN(CCCN(C)C)CC4)n3)ccc2n1 [Example 64]
IC50 [1]: 0.09 µM
G4 delta Tm [2]: 12 °C

Cc1cc(N)c2cc(Nc3nc(Nc4ccc5nc(C)cc(N)c5c4)nc(N(C)C4CCN(Cc5ccccc5)C4)n3)ccc2n1 (centres unmarked) [Example 65]
IC50 [1]: 1 µM
G4 delta Tm [2]: 12.5 °C

Cc1cc(N)c2cc(Nc3nc(NCc4cccnc4)nc(Nc4ccc5nc(C)cc(N)c5c4)n3)ccc2n1 [Example 66]
IC50 [1]: 0.28 µM
G4 delta Tm [2]: 9 °C
